Data from patent US20240228547A1, “POLYPEPTIDE FOR RESISTING NOVEL CORONAVIRUS AND APPLICATION THEREOF” (INSTITUTE OF MICROBIOLOGY, CHINESE ACADEMY OF SCIENCES, priority 2021, published 2024).

System: pseudovirus of SARS-CoV-2 original strain (SARS-CoV-2 WT)
Conditions: for IC50: read-out: IC50, inhibitory effect on pseudovirus, Hela hACE2 cells

| SMILES | Increase multiple (fold increase in the inhibitory effect compared to the polypeptide P3) | IC50 |
| --- | --- | --- |
| CC[C@H](C)[C@H](NC(=O)CNC(=O)[C@H](CO)NC(=O)[C@@H](NC(=O)[C@H](CC(=O)O)NC(=O)CNC(=O)[C@H](Cc1ccccc1)NC(=O)[C@H](CCCCN)NC(=O)[C@@H](N)C(C)C)[C@@H](C)CC)C(=O)N[C@@H](CC(N)=O)C(=O)N[C@@H](C)C(=O)N[C@@H](CO)C(=O)N[C@H](C(=O)N[C@H](C(=O)N[C@@H](CC(N)=O)C(=O)N[C@H](C(=O)N[C@@H](CCCCN)C(=O)N[C@@H](CCC(=O)O)C(=O)N[C@@H](CCC(=O)O)C(=O)N[C@H](C(=O)N[C@@H](CC(=O)O)C(=O)N[C@@H](CCCNC(=N)N)C(=O)N[C@@H](CC(C)C)C(=O)N[C@@H](Cc1ccc(O)cc1)C(=O)N[C@@H](CCC(=O)O)C(=O)N[C@H](C(=O)N[C@H](C(=O)N[C@@H](CCCCN)C(=O)N[C@@H](CC(N)=O)C(=O)N[C@@H](CC(C)C)C(=O)N[C@@H](CC(N)=O)C(=O)N[C@@H](CCC(=O)O)C(=O)N[C@@H](CO)C(=O)N[C@@H](CC(C)C)C(=O)N[C@H](C(=O)N[C@@H](CC(=O)O)C(=O)N[C@@H](CC(C)C)C(=O)N[C@@H](CCC(N)=O)C(=O)N[C@@H](CCC(=O)O)C(=O)N[C@@H](CC(C)C)C(=O)O)[C@@H](C)CC)C(C)C)C(C)C)[C@@H](C)CC)[C@@H](C)CC)C(C)C)C(C)C [Polypeptide P3-3] | 3.4 | 230 nM |
| CC[C@H](C)[C@H](N)C(=O)N[C@@H](CO)C(=O)NCC(=O)N[C@H](C(=O)N[C@@H](CC(N)=O)C(=O)N[C@@H](C)C(=O)N[C@@H](CO)C(=O)N[C@H](C(=O)N[C@H](C(=O)N[C@@H](CC(N)=O)C(=O)N[C@H](C(=O)N[C@@H](CCCCN)C(=O)N[C@@H](CCC(=O)O)C(=O)N[C@@H](CCC(=O)O)C(=O)N[C@H](C(=O)N[C@@H](CC(=O)O)C(=O)N[C@@H](CCCNC(=N)N)C(=O)N[C@@H](CC(C)C)C(=O)N[C@@H](CC(N)=O)C(=O)N[C@@H](CCC(=O)O)C(=O)N[C@H](C(=O)N[C@@H](C)C(=O)N[C@@H](CCCCN)C(=O)N[C@@H](CC(N)=O)C(=O)N[C@@H](CC(C)C)C(=O)N[C@@H](CC(N)=O)C(=O)N[C@@H](CCC(=O)O)C(=O)N[C@@H](CO)C(=O)N[C@@H](CC(C)C)C(=O)N[C@H](C(=O)N[C@@H](CC(=O)O)C(=O)N[C@@H](CC(C)C)C(=O)N[C@@H](CCC(N)=O)C(=O)N[C@@H](CCC(=O)O)C(=O)N[C@@H](CC(C)C)C(=O)O)[C@@H](C)CC)C(C)C)[C@@H](C)CC)[C@@H](C)CC)C(C)C)C(C)C)[C@@H](C)CC [Polypeptide P3-4] | 3.3 | 240 nM |
| CC[C@H](C)[C@H](N)C(=O)N[C@@H](CO)C(=O)NCC(=O)N[C@H](C(=O)N[C@@H](CC(N)=O)C(=O)N[C@@H](C)C(=O)N[C@@H](CO)C(=O)N[C@H](C(=O)N[C@H](C(=O)N[C@@H](CC(N)=O)C(=O)N[C@H](C(=O)N[C@@H](CCC(N)=O)C(=O)N[C@@H](CCCCN)C(=O)N[C@@H](CCC(=O)O)C(=O)N[C@H](C(=O)N[C@@H](CC(=O)O)C(=O)N[C@@H](CCCNC(=N)N)C(=O)N[C@@H](CC(C)C)C(=O)N[C@@H](CC(N)=O)C(=O)N[C@@H](CCC(=O)O)C(=O)N[C@H](C(=O)N[C@@H](C)C(=O)N[C@@H](CCCCN)C(=O)N[C@@H](CCC(=O)O)C(=O)N[C@@H](CC(C)C)C(=O)N[C@@H](CC(N)=O)C(=O)N[C@@H](CCC(=O)O)C(=O)N[C@@H](CO)C(=O)N[C@@H](CC(C)C)C(=O)N[C@H](C(=O)N[C@@H](CC(=O)O)C(=O)N[C@@H](CC(C)C)C(=O)N[C@@H](CCC(N)=O)C(=O)N[C@@H](CCC(=O)O)C(=O)N[C@@H](CC(C)C)C(=O)O)[C@@H](C)CC)C(C)C)[C@@H](C)CC)[C@@H](C)CC)C(C)C)C(C)C)[C@@H](C)CC [Polypeptide P3-5] | 0.5 | 1590 nM |
